# Key:
# [1] = target: Sodium-dependent noradrenaline transporter (Bos taurus, UniProt P51143)
# [2] = target: Norepinephrine transporter (Rattus norvegicus, UniProt Q9JIA2)
# [3] = target: Sodium-dependent noradrenaline transporter (Homo sapiens, UniProt P23975)
# Sodium-dependent noradrenaline transporter (Homo sapiens, UniProt P23975), sequence (P23975 whole entry): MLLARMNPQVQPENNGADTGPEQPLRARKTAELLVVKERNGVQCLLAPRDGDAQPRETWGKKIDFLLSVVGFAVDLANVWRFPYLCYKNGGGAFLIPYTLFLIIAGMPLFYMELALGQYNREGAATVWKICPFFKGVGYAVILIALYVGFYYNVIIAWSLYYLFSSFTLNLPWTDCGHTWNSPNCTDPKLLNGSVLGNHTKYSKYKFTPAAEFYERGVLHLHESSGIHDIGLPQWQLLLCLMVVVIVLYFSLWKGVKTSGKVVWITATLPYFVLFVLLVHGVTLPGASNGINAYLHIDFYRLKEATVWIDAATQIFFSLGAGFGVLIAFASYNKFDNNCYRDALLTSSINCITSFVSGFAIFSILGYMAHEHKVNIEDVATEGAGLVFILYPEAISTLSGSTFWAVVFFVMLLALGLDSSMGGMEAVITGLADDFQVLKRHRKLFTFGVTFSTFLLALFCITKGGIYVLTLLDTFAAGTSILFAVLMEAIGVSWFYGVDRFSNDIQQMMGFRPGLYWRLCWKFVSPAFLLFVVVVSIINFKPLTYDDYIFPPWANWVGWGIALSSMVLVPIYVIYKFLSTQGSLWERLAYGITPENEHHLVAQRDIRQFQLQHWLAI
# Sodium-dependent noradrenaline transporter (Bos taurus, UniProt P51143), sequence (P51143 whole entry): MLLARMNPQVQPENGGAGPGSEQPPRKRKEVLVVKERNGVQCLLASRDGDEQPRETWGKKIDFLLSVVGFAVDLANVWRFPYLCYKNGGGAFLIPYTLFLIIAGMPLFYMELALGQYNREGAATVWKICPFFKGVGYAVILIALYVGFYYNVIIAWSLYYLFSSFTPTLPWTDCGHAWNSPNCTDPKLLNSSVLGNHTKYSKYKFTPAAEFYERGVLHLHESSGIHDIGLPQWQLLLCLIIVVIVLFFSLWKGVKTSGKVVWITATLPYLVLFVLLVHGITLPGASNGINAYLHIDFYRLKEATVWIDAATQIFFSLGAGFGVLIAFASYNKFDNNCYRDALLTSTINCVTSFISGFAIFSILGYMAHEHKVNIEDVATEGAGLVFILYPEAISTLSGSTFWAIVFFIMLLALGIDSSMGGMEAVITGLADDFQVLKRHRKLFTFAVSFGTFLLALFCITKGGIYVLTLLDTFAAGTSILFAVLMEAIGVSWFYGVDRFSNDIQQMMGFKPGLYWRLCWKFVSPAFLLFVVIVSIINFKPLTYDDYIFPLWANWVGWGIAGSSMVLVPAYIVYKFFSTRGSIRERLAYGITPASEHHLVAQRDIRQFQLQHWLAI
SMILES,Ki [1] [nM],Ki [2] [nM],Ki [3] [nM]
NCCc1ccc(O)c(O)c1,397,392,–
C[n+]1ccc(-c2ccccc2)cc1 [NSC_39484],570,778,507

# Further lines, with some results ahead:
Ki [1] [nM],Ki [2] [nM],SMILES,Ki [3] [nM]
5000,6500,CNCC(O)c1ccc(O)c(O)c1 (stereo not given) [EPINEPHRINE],3680
–,5.74,CNCCC(Oc1ccccc1OC)c1ccccc1 (stereo not given) [3-(2-methoxyphenoxy)-N-methyl-3-phenylpropan-1-amine],–
93.6,–,CN(C)CCCN1c2ccccc2CCc2ccccc21,–
